# Literature values in patent US5175181A, “Imidazolyl/imidazolylalkyl-N-terminal amino hydroxy” (G. D. Searle & Co., priority 1991, dated 1992).
# Square brackets hold non-standard residues; d marks the D form. Peptide text beside a SMILES is read from it. * marks the point of attachment. Sta = CC(C)C[C@H](N)[C@@H](O)CC(=O)O; Isovaleryl = CC(C)CC(=O)*
# Assays:
# hog renin = conditions: after injection of hog renin into nephrectomized rats; Gross et al, Science 1971
# [1] = test system: aspartyl proteases such as pepsin, cathepsin D and renin; conditions: Umezawa et al, J. Antibiot. 1970
compound,measurement,setting,value
CC(C)CC(=O)N[C@H](C(=O)N[C@H](C(=O)N[C@@H](CC(C)C)[C@@H](O)CC(=O)N[C@@H](C)C(=O)N[C@@H](CC(C)C)[C@@H](O)CC(=O)O)C(C)C)C(C)C [pepstatin] (Isovaleryl-VV[Sta]A[Sta]-OH),blood pressure in vivo,hog renin,reduce blood pressure
same,inhibition of aspartyl proteases,[1],inhibitor of aspartyl proteases
